Source: patent US20240158392A1 (Janssen Biotech, Inc., priority 2021, published 2024)

target: SIK2 (Homo sapiens, UniProt Q9H0K1); assay: SIK2 Enzymatic Assay High Version 2 (High ATP); assay type: biochemical; conditions: not given
Method in brief: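 At room temperature, enzyme (6 nM, 2× final) was preincubated with compound for 30 min, then 6 mM ATP and 400 μM HDAC5tide (both 2× final) were added for 2 h. ADP formed was measured by ADP-Glo Max (2 h reagent, 1 h detection) using luminescence.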

SIK2, sequence (Q9H0K1 whole entry, species assumed): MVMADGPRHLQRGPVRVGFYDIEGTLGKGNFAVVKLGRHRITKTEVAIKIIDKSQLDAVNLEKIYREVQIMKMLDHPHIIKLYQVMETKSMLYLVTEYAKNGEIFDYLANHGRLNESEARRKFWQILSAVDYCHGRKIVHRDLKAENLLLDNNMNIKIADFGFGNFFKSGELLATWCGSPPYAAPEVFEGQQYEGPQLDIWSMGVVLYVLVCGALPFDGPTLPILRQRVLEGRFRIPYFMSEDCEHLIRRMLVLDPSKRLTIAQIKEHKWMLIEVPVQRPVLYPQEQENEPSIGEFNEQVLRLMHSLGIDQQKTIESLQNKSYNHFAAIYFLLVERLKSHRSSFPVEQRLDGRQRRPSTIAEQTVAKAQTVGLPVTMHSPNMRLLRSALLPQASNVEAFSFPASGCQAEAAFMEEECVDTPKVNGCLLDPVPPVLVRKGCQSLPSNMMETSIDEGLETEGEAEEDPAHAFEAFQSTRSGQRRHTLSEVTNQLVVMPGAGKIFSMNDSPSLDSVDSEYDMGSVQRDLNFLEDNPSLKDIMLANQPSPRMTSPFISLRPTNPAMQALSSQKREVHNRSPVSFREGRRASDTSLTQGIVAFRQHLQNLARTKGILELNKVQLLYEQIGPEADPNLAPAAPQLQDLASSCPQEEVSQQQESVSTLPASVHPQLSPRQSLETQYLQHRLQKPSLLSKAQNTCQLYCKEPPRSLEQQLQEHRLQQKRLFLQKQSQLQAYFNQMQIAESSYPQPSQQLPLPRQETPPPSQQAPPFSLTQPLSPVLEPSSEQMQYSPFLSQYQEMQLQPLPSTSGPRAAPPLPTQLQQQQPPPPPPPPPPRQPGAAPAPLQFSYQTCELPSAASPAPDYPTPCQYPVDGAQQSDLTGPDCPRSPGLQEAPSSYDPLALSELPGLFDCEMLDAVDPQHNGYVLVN

Row | SMILES | IC50 [µM]
1 | Cc1cc(-c2ccn3nc(Nc4cc(F)n(C)n4)cc3c2)c(O[C@H]2C[C@H]3COC[C@@H](C2)N3C)cn1 [Example 120, N-(5-fluoro-1-methyl-1H-pyrazol-3-yl)-5-(2-methyl-5-(((1R,5S,7s)-9-methyl-3-oxa-9-azabicyclo[3.3.1]nonan-7-yl)oxy)pyridin-4-yl)pyrazolo[1,5-a]pyridin-2-amine] | < 0.000847
2 | CCNC(=O)c1cnc(Nc2cc3cc(-c4cc(C)ncc4O[C@H]4C[C@H]5COC[C@@H](C4)N5)ccn3n2)cn1 [Example 386, N-ethyl-5-[[5-[2-methyl-5-[[(1S,5R,7s)-3-oxa-9-azabicyclo[3.3.1]nonan-7-yl]oxy]-4-pyridyl]pyrazolo[1,5-a]pyridin-2-yl]amino]pyrazine-2-carboxamide] | 0.00131
3 | Cc1cc(-c2ccn3nc(NC(=O)C4CC4)cc3c2)c(OC[C@H]2CCN2CCF)cn1 [Example 529, N-[5-[5-[[(2R)-1-(2-fluoroethyl)azetidin-2-yl]methoxy]-2-methyl-4-pyridyl]pyrazolo[1,5-a]pyridin-2-yl]cyclopropanecarboxamide] | 0.000963
4 | Cc1cc(-c2ccn3nc(NC(=O)C4CC4(F)F)cc3c2)c(OC[C@H]2CCN2C)cn1 (stereo partly drawn) [Example 624, 2,2-difluoro-N-[5-[2-methyl-5-[[(2R)-1-methylazetidin-2-yl]methoxy]-4-pyridyl]pyrazolo[1,5-a]pyridin-2-yl]cyclopropanecarboxamide] | 0.00329
5 | Cc1cc(-c2ccn3nc(Nc4ccnc(C)n4)cc3c2)c(O[C@H]2C[C@H]3COC[C@@H](C2)N3)cn1 [Example 372, 5-[2-methyl-5-[[(1S,5R,7s)-3-oxa-9-azabicyclo[3.3.1]nonan-7-yl]oxy]-4-pyridyl]-N-(2-methylpyrimidin-4-yl)pyrazolo[1,5-a]pyridin-2-amine] | < 0.000847
6 | CCN1CC[C@H]1COc1cnc(C)cc1-c1ccn2nc(NC(=O)C3CC3)cc2c1 [Example 605, N-[5-[5-[[(2S)-1-ethylazetidin-2-yl]methoxy]-2-methyl-4-pyridyl]pyrazolo[1,5-a]pyridin-2-yl]cyclopropanecarboxamide] | 0.316
7 | Cc1cc(-c2ccn3nc(Nc4cc(C)c(=O)n(C)n4)cc3c2)c(OC2C[C@H]3COC[C@@H](C2)N3)cn1 (stereo partly drawn) [Example 337, 2,4-dimethyl-6-[[5-[2-methyl-5-[[(1S,5R)-3-oxa-9-azabicyclo[3.3.1]nonan-7-yl]oxy]-4-pyridyl]pyrazolo[1,5-a]pyridin-2-yl]amino]pyridazin-3-one] | 0.00148
8 | Cc1cc(-c2ccn3nc(Nc4ccc(F)cn4)cc3c2)c(O[C@H]2C[C@H]3COC[C@@H](C2)N3C)cn1 [Example 126] | < 0.000847
9 | Cc1cc(-c2ccn3nc(Nc4cc(C)nc(C)n4)cc3c2)c(OC[C@H]2CCN2C)cn1 [Example 527, N-(2,6-dimethylpyrimidin-4-yl)-5-[2-methyl-5-[[(2R)-1-methylazetidin-2-yl]methoxy]-4-pyridyl]pyrazolo[1,5-a]pyridin-2-amine] | 0.0081
10 | Cc1cc(-c2cn3cc(Nc4cc(C)nc(C)n4)nc3cn2)c(OC2C[C@H]3COC[C@@H](C2)N3C)cn1 (stereo partly drawn) [Example 349, N-(2,6-dimethylpyrimidin-4-yl)-6-[2-methyl-5-[[(1R,5S)-9-methyl-3-oxa-9-azabicyclo[3.3.1]nonan-7-yl]oxy]-4-pyridyl]imidazo[1,2-a]pyrazin-2-amine] | < 0.000847
11 | Cc1cc(-c2ccn3nc(Nc4ccc(C(=O)O)cn4)cc3c2)c(O[C@H]2C[C@H]3COC[C@@H](C2)N3)cn1 [Example 370, 6-[[5-[2-methyl-5-[[(1S,5R,7s)-3-oxa-9-azabicyclo[3.3.1]nonan-7-yl]oxy]-4-pyridyl]pyrazolo[1,5-a]pyridin-2-yl]amino]pyridine-3-carboxylic Acid] | < 0.000847

same assay, conditions: enzyme 6 nM, 6 mM ATP and 400 μM HDAC5tide (each 2× final concentration); 30 minutes pre-incubation, 2 hours; ADP-Glo Max luminescence; read-out: SIK2 high ATP IC50 (μM) (Test Example 2)

Row | SMILES | IC50 [µM]
12 | Cc1cc(-c2ccn3nc(Nc4cc(C)nc(C)n4)cc3c2)c(O[C@H]2C[C@H](N)C2)cn1 [Example 545, 5-(5-((1r,3r)-3-aminocyclobutoxy)-2-methylpyridin-4-yl)-N-(2,6-dimethylpyrimidin-4-yl)pyrazolo[1,5-a]pyridin-2-amine] | 0.0134
13 | Cc1cc(-c2ccn3nc(Nc4cc(C)nc(C)n4)cc3c2)c(OCC(C)(C)O)cn1 [Example 200, 1-[[4-[2-[(2,6-dimethylpyrimidin-4-yl)amino]pyrazolo[1,5-a]pyridin-5-yl]-6-methyl-3-pyridyl]oxy]-2-methyl-propan-2-ol] | 0.0445
14 | Cc1cc(-c2ccn3nc(Nc4ccncn4)cc3c2)c(OC[C@@H]2CNCCO2)cn1 [Example 132, 5-[2-methyl-5-[[(2S)-morpholin-2-yl]methoxy]-4-pyridyl]-N-pyrimidin-4-yl-pyrazolo[1,5-a]pyridin-2-amine] | 0.00951
15 | Cc1cc(-c2ccn3nc(NC(=O)C4CC4)cc3c2)c(OCC2(O)CCC(F)(F)CC2)cn1 (racemic) [Example 188, rac-N-[5-[5-[(4,4-difluoro-1-hydroxy-cyclohexyl)methoxy]-2-methyl-4-pyridyl]pyrazolo[1,5-a]pyridin-2-yl]cyclopropanecarboxamide] | 0.0478
16 | Cc1cc(-c2ccn3nc(Nc4cc(C)nc(C)n4)cc3c2)c(OC[C@@]2(O)CCOC2)cn1 (single isomer, unassigned) [Example 203, (*R)-3-(((4-(2-((2,6-dimethylpyrimidin-4-yl)amino)pyrazolo[1,5-a]pyridin-5-yl)-6-methylpyridin-3-yl)oxy)methyl)tetrahydrofuran-3-ol] | 0.0469
17 | Cc1cc(-c2ccn3nc(Nc4cnn(C(C)C)c4)cc3c2)c(OC[C@@H]2CNCCO2)cn1 [Example 133, N-(1-isopropylpyrazol-4-yl)-5-[2-methyl-5-[[(2S)-morpholin-2-yl]methoxy]-4-pyridyl]pyrazolo[1,5-a]pyridin-2-amine] | 0.00845

More lines, now with the values ahead:

Row | IC50 [µM] | SMILES
18 | 0.0193 | Cc1cc(-c2ccn3nc(Nc4cc(C)nc(C)n4)cc3c2)c(OC[C@@](C)(N)C(F)(F)F)cn1 (single isomer, unassigned) [Example 270, (*R)-5-[5-(2-Amino-3,3,3-trifluoro-2-methyl-propoxy)-2-methyl-4-pyridyl]-N-(2,6-dimethylpyrimidin-4-yl)pyrazolo[1,5-a]pyridin-2-amine]
19 | 0.153 | Cc1cc(-c2ccn3nc(Nc4cc(C)nc(C)n4)cc3c2)c(OC[C@H]2CC3(CCCC3)CO2)cn1 (single isomer, unassigned) [Example 258, (*R)—N-(2,6-dimethylpyrimidin-4-yl)-5-[2-methyl-5-(8-oxaspiro[4.4]nonan-7-ylmethoxy)-4-pyridyl]pyrazolo[1,5-a]pyridin-2-amine]
20 | < 0.000847 | CCn1nc(Nc2cc3cc(-c4cc(C)ncc4OC[C@H]4OCC[C@@H]4O)ccn3n2)cc(C)c1=O [Example 293, 2-ethyl-6-[[5-[5-[[(2R,3S)-3-hydroxytetrahydrofuran-2-yl]methoxy]-2-methyl-4-pyridyl]pyrazolo[1,5-a]pyridin-2-yl]amino]-4-methyl-pyridazin-3-one]
21 | 0.0154 | Cc1cc(Nc2cc3cc(-c4cc(OCC(F)F)ncc4OCC(C)(C)C#N)ccn3n2)nn(C2CC2)c1=O [Example 730, 3-[[4-[2-[(1-cyclopropyl-5-methyl-6-oxo-pyridazin-3-yl)amino]pyrazolo[1,5-a]pyridin-5-yl]-6-(2,2-difluoroethoxy)-3-pyridyl]oxy]-2,2-dimethyl-propanenitrile]
22 | 0.0414 | COc1cc(-c2ccn3nc(Nc4cc(C)nc(C)n4)cc3c2)c(OC[C@H]2OCC[C@@H]2O)cn1 [Example 498, (2R,3S)-2-[[4-[2-[(2,6-dimethylpyrimidin-4-yl)amino]pyrazolo[1,5-a]pyridin-5-yl]-6-methoxy-3-pyridyl]oxymethyl]tetrahydrofuran-3-ol]
23 | 0.000975 | CC#Cc1cc(-c2ccn3nc(Nc4cc(C)nc(C)n4)cc3c2)c(OC[C@]23CN[C@H](CO2)C3)cn1 [Example 302, N-(2,6-dimethylpyrimidin-4-yl)-5-[5-[[(1S,4S)-5-oxa-2-azabicyclo[2.2.1]heptan-4-yl]methoxy]-2-prop-1-ynyl-4-pyridyl]pyrazolo[1,5-a]pyridin-2-amine]
24 | 0.0233 | Cc1cc(-c2ccn3nc(Nc4cc(C)c(C(=O)NC5CC5)c(C)n4)cc3c2)c(OCC(C)(C)O)cn1 [Example 335, N-cyclopropyl-6-[[5-[5-(2-hydroxy-2-methyl-propoxy)-2-methyl-4-pyridyl]pyrazolo[1,5-a]pyridin-2-yl]amino]-2,4-dimethyl-pyridine-3-carboxamide]
25 | 0.00405 | CNc1nc(C)cc(Nc2cc3cc(-c4cc(OCC(F)F)ncc4OCC(C)(C)C#N)ccn3n2)n1 [Example 725, 3-[[6-(2,2-difluoroethoxy)-4-[2-[[6-methyl-2-(methylamino)pyrimidin-4-yl]amino]pyrazolo[1,5-a]pyridin-5-yl]-3-pyridyl]oxy]-2,2-dimethyl-propanenitrile]
26 | 0.117 | Cc1cc(-c2ccn3nc(Nc4cc(C)nc(C(=O)NCC(C)(C)O)n4)cc3c2)c(OCC(C)(C)O)cn1 [Example 647, 4-[[5-[5-(2-hydroxy-2-methyl-propoxy)-2-methyl-4-pyridyl]pyrazolo[1,5-a]pyridin-2-yl]amino]-N-(2-hydroxy-2-methyl-propyl)-6-methyl-pyrimidine-2-carboxamide]
27 | 0.0448 | COc1cc(Nc2cc3cc(-c4cc(C)ncc4O[C@H]4CC[C@H](O)CC4)ccn3n2)cc(OC(F)F)c1C(=O)NC1CC1 [Example 333, N-cyclopropyl-2-(difluoromethoxy)-4-[[5-[5-(4-hydroxycyclohexoxy)-2-methyl-4-pyridyl]pyrazolo[1,5-a]pyridin-2-yl]amino]-6-methoxy-benzamide]
28 | 0.0056 | CC(C)(C#N)COc1cnc(OC(F)F)cc1-c1ccn2nc(Nc3cnccn3)cc2c1 [Example 707, 3-[[6-(difluoromethoxy)-4-[2-(pyrazin-2-ylamino)pyrazolo[1,5-a]pyridin-5-yl]-3-pyridyl]oxy]-2,2-dimethyl-propanenitrile]
